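48-hour exposure; five concentrations; linearly interpolated endpoints. GI50: concentration for 50% inhibition of growth.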 Calls of active or inactive are those of the source. Cut-off read from the data, not from the text of the source: active = GI50 up to about 1.1 µM and inactive = higher.
Columns and labels:
Experiment in all cases: NCI-60 cell line screen, 48 h
EKVX = test system: EKVX
NCI-H23 = test system: NCI-H23
TK-10 = test system: TK-10
SK-MEL-5 = test system: SK-MEL-5
K562 = test system: K562
CAKI-1 = test system: CAKI-1
U-251 = test system: U-251
OVCAR-8 = test system: OVCAR-8
HCC 2998 = test system: HCC 2998
CCRF-CEM = test system: CCRF-CEM
SNB-75 = test system: SNB-75
M14 = test system: M14
HCT-15 = test system: HCT-15
SW-620 = test system: SW-620
IGROV-1 = test system: IGROV-1
OVCAR-4 = test system: OVCAR-4
UO-31 = test system: UO-31
MCF7 = test system: MCF7
DU-145 = test system: DU-145

Row | Compound | GI50 (EKVX) | GI50 (NCI-H23) | GI50 (TK-10) | GI50 (SK-MEL-5) | GI50 (K562) | GI50 (CAKI-1) | GI50 (U-251) | GI50 (OVCAR-8) | GI50 (HCC 2998) | GI50 (CCRF-CEM) | GI50 (SNB-75) | GI50 (M14) | GI50 (HCT-15) | GI50 (SW-620) | GI50 (IGROV-1) | GI50 (OVCAR-4) | GI50 (UO-31) | GI50 (MCF7) | GI50 (DU-145)
1 | CC(=O)NC(CCCNC(=O)OCc1ccccc1)C(=O)NCc1ccccc1 (stereo not drawn) | > 100 µM (inactive) | > 100 µM (inactive) | > 100 µM (inactive) | > 100 µM (inactive) | > 100 µM (inactive) | > 100 µM (inactive) | > 100 µM (inactive) | > 100 µM (inactive) | > 100 µM (inactive) | > 100 µM (inactive) | 41.8 µM (inactive) | > 100 µM (inactive) | > 100 µM | > 100 µM (inactive) | > 100 µM (inactive) | > 100 µM (inactive) | > 100 µM (inactive) | – | –
2 | CNC(=O)N(CCCC(NC(C)=O)C(=O)NCc1ccccc1)Cc1ccccc1 (stereo not drawn) | > 100 µM (inactive) | > 100 µM (inactive) | > 100 µM (inactive) | > 100 µM (inactive) | > 100 µM (inactive) | > 100 µM (inactive) | > 100 µM (inactive) | > 100 µM (inactive) | > 100 µM (inactive) | > 100 µM (inactive) | 28.6 µM (inactive) | > 100 µM (inactive) | > 100 µM | > 100 µM (inactive) | > 100 µM (inactive) | > 100 µM (inactive) | > 100 µM (inactive) | – | –
3 | C=C1CC2C(=O)N(c3ccccc3)C(=O)C2CC1n1[nH]c(=O)n(Cc2ccccc2)c1=O (stereo not drawn) | > 100 µM (inactive) | > 100 µM (inactive) | > 100 µM (inactive) | > 100 µM (inactive) | > 100 µM (inactive) | > 100 µM (inactive) | > 100 µM (inactive) | > 100 µM (inactive) | > 100 µM (inactive) | > 100 µM (inactive) | > 100 µM (inactive) | > 100 µM (inactive) | > 100 µM | > 100 µM (inactive) | > 100 µM (inactive) | > 100 µM (inactive) | > 100 µM (inactive) | – | –
4 | COc1ccc(S(=O)(=O)N/N=C(\C)CN2C(=O)c3ccccc3C2=O)cc1OC | > 100 µM (inactive) | > 100 µM (inactive) | > 100 µM (inactive) | > 100 µM (inactive) | > 100 µM (inactive) | > 100 µM (inactive) | > 100 µM (inactive) | > 100 µM (inactive) | > 100 µM (inactive) | > 100 µM (inactive) | > 100 µM (inactive) | > 100 µM (inactive) | > 100 µM | > 100 µM (inactive) | > 100 µM (inactive) | > 100 µM (inactive) | > 100 µM (inactive) | – | –
5 | O=S(=O)(N/N=C\c1c2ccccc2[n+]([O-])c2ccccc12)c1ccc(Cl)cc1 | > 100 µM (inactive) | 85.5 µM (inactive) | > 100 µM (inactive) | > 100 µM (inactive) | 48.2 µM (inactive) | > 100 µM (inactive) | 94.4 µM (inactive) | > 100 µM (inactive) | > 100 µM (inactive) | > 100 µM (inactive) | 26.1 µM (inactive) | > 100 µM (inactive) | > 100 µM | > 100 µM (inactive) | > 100 µM (inactive) | 33.3 µM (inactive) | > 100 µM (inactive) | – | –
6 | COc1ccccc1NC(=O)C(=O)C1C(=O)Nc2ccccc2[S+]1[O-] (stereo not drawn) | > 100 µM (inactive) | > 100 µM (inactive) | > 100 µM (inactive) | > 100 µM (inactive) | > 100 µM (inactive) | > 100 µM (inactive) | > 100 µM (inactive) | > 100 µM (inactive) | > 100 µM (inactive) | > 100 µM (inactive) | > 100 µM (inactive) | > 100 µM (inactive) | > 100 µM | > 100 µM (inactive) | > 100 µM (inactive) | > 100 µM (inactive) | > 100 µM (inactive) | – | –
7 | COC(=O)C(C(=O)C(=O)Nc1ccccc1C)c1nc2ccc([N+](=O)[O-])cc2nc1O (stereo not drawn) | > 100 µM (inactive) | > 100 µM (inactive) | > 100 µM (inactive) | > 100 µM (inactive) | > 100 µM (inactive) | > 100 µM (inactive) | > 100 µM (inactive) | > 100 µM (inactive) | > 100 µM (inactive) | > 100 µM (inactive) | > 100 µM (inactive) | > 100 µM (inactive) | > 100 µM | > 100 µM (inactive) | > 100 µM (inactive) | > 100 µM (inactive) | > 100 µM (inactive) | – | –
8 | O=C([O-])C1([n+]2c(-c3ccccc3)cc(-c3ccccc3)cc2-c2ccccc2)CC1 | 22.7 µM (inactive) | 86.9 µM (inactive) | > 100 µM (inactive) | 19.6 µM (inactive) | 27.5 µM (inactive) | – | 28.7 µM (inactive) | > 100 µM (inactive) | 29.3 µM (inactive) | 48.2 µM (inactive) | 46.8 µM (inactive) | 43.6 µM (inactive) | > 100 µM | > 100 µM (inactive) | 32.8 µM (inactive) | 96.8 µM (inactive) | – | 28.1 µM (inactive) | > 100 µM (inactive)
9 | O=c1/c(=C/c2ccco2)sc2nc3ccccc3n12 | 59.2 µM (inactive) | > 10 µM (inactive) | 50 µM (inactive) | > 10 µM (inactive) | > 10 µM (inactive) | > 10 µM (inactive) | > 10 µM (inactive) | > 10 µM (inactive) | > 10 µM (inactive) | > 10 µM (inactive) | 27 µM (inactive) | > 10 µM (inactive) | > 10 µM | > 10 µM (inactive) | > 10 µM (inactive) | > 10 µM (inactive) | > 10 µM (inactive) | – | –
10 | COC(=O)CC[C@@H](NC(=O)C(C)NC(=O)COC1C(O)C(COC(=O)CCCCCCCCCCNC(=O)c2ccc([N+](=O)[O-])c3[nH]c4cc(Br)ccc4c(=O)c23)OC(OCc2ccccc2)C1NC(C)=O)C(N)=O (stereo partly drawn) | 17.3 µM (inactive) | > 100 µM (inactive) | > 100 µM (inactive) | 68.7 µM (inactive) | 44.4 µM (inactive) | > 100 µM (inactive) | > 100 µM (inactive) | > 100 µM (inactive) | 22.5 µM (inactive) | > 100 µM (inactive) | > 100 µM (inactive) | 61.4 µM (inactive) | > 100 µM | > 100 µM (inactive) | 19.5 µM (inactive) | > 100 µM (inactive) | > 100 µM (inactive) | – | –
11 | CC(=O)OC[C@@H](COC(=O)/C=C/c1ccc(O)cc1)OC1OC(CO)C(O)C(O)C1O (stereo partly drawn) | > 100 µM (inactive) | > 100 µM (inactive) | > 100 µM (inactive) | > 100 µM (inactive) | > 100 µM (inactive) | > 100 µM (inactive) | > 100 µM (inactive) | > 100 µM (inactive) | > 100 µM (inactive) | > 100 µM (inactive) | > 100 µM (inactive) | > 100 µM (inactive) | > 100 µM | > 100 µM (inactive) | > 100 µM (inactive) | > 100 µM (inactive) | > 100 µM (inactive) | – | > 100 µM (inactive)

Reference: ChEMBL document CHEMBL1201862, “PubChem BioAssay data set” (2004)
